Results taken from PubChem BioAssay (NCI).
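Results reflect a 48-hour exposure of cells in 96-well plates to compound at five concentrations. The concentration for 50% growth inhibition is given as GI50. TGI denotes the concentration required for complete inhibition of growth.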

Tests used:
Assay in all cases: NCI tumour cell line growth inhibition, 48 h
OVCAR-8 ovarian = system: OVCAR-8 ovarian
T-47D breast = system: T-47D breast
786-0 renal = system: 786-0 renal
NCI-H460 lung = system: NCI-H460 lung
UACC-257 melanoma = system: UACC-257 melanoma
HT29 colon = system: HT29 colon
K-562 leukemia = system: K-562 leukemia
COLO 205 colon = system: COLO 205 colon
OVCAR-4 ovarian = system: OVCAR-4 ovarian
NCI-H522 lung = system: NCI-H522 lung
UACC-62 melanoma = system: UACC-62 melanoma
LOX IMVI melanoma = system: LOX IMVI melanoma
MCF7 breast = system: MCF7 breast
UO-31 renal = system: UO-31 renal
DU-145 prostate = system: DU-145 prostate
PC-3 prostate = system: PC-3 prostate
OVCAR-3 ovarian = system: OVCAR-3 ovarian
ACHN renal = system: ACHN renal
SK-MEL-5 melanoma = system: SK-MEL-5 melanoma
HCT-15 colon = system: HCT-15 colon
SN12C renal = system: SN12C renal
TK-10 renal = system: TK-10 renal
IGROV1 ovarian = system: IGROV1 ovarian
SR leukemia = system: SR leukemia
U251 CNS = system: U251 CNS
A549 NSCLC = system: A549 NSCLC
SNB-19 CNS = system: SNB-19 CNS
MDA-MB-435 = system: MDA-MB-435
CCRF-CEM leukemia = system: CCRF-CEM leukemia
NCI-H226 lung = system: NCI-H226 lung
SK-OV-3 ovarian = system: SK-OV-3 ovarian
RPMI-8226 leukemia = system: RPMI-8226 leukemia
HOP-92 NSCLC = system: HOP-92 NSCLC
MDA-MB-231 breast = system: MDA-MB-231 breast
BT-549 breast = system: BT-549 breast
SF-295 CNS = system: SF-295 CNS
HCT-116 colon = system: HCT-116 colon
SW-620 colon = system: SW-620 colon
SK-MEL-28 melanoma = system: SK-MEL-28 melanoma
HOP-62 NSCLC = system: HOP-62 NSCLC
HL-60(TB) leukemia = system: HL-60(TB) leukemia
HCC-2998 colon = system: HCC-2998 colon
M14 melanoma = system: M14 melanoma
MALME-3M melanoma = system: MALME-3M melanoma
A498 renal = system: A498 renal
SF-539 CNS = system: SF-539 CNS
SK-MEL-2 melanoma = system: SK-MEL-2 melanoma
NCI/ADR-RES ovarian = system: NCI/ADR-RES ovarian
EKVX NSCLC = system: EKVX NSCLC
SNB-75 CNS = system: SNB-75 CNS
HS 578T breast = system: HS 578T breast
RXF 393 renal = system: RXF 393 renal
CAKI-1 renal = system: CAKI-1 renal
SF-268 CNS = system: SF-268 CNS
MOLT-4 leukemia = system: MOLT-4 leukemia
OVCAR-5 ovarian = system: OVCAR-5 ovarian
KM12 colon = system: KM12 colon
NCI-H23 lung = system: NCI-H23 lung

With O=C(Nc1ccc(Oc2cccc(Cl)c2)c(Cl)c1)c1cnccn1 as the compound, how does the GI50 (OVCAR-8 ovarian) read?
Its GI50 is 1410 nM.

What about the TGI (OVCAR-8 ovarian) of the same compound?
The TGI was > 50000 nM.

What about the GI50 (T-47D breast) of the same compound?
Its GI50 is 460 nM.

And the TGI (T-47D breast)?
Its TGI is > 50000 nM.

What about the GI50 (786-0 renal) of the same compound?
The GI50 was 2160 nM.

What about the TGI (786-0 renal) of the same compound?
The TGI was > 50000 nM.

And the GI50 (NCI-H460 lung)?
Its GI50 is 245 nM.

What about the TGI (NCI-H460 lung) of the same compound?
Its TGI is > 50000 nM.

What about the GI50 (UACC-257 melanoma) of the same compound?
Its GI50 is > 20000 nM.

And the TGI (UACC-257 melanoma)?
Its TGI is > 50000 nM.

And the GI50 (HT29 colon)?
Its GI50 is 168 nM.

And the TGI (HT29 colon)?
Its TGI is > 20300 nM.

And the GI50 (K-562 leukemia)?
Its GI50 is 162 nM.

And the TGI (K-562 leukemia)?
The TGI was > 50000 nM.

And the GI50 (COLO 205 colon)?
Its GI50 is 208 nM.

And the TGI (COLO 205 colon)?
Its TGI is 16200 nM.

And the TGI (OVCAR-4 ovarian)?
The TGI was > 50000 nM.

And the GI50 (NCI-H522 lung)?
Its GI50 is 296 nM.

What about the TGI (NCI-H522 lung) of the same compound?
The TGI was 2550 nM.

What about the GI50 (UACC-62 melanoma) of the same compound?
Its GI50 is 345 nM.

And the TGI (UACC-62 melanoma)?
Its TGI is > 50000 nM.

What about the GI50 (LOX IMVI melanoma) of the same compound?
Its GI50 is 275 nM.

What about the TGI (LOX IMVI melanoma) of the same compound?
Its TGI is > 50000 nM.

And the GI50 (MCF7 breast)?
Its GI50 is 183 nM.

What about the TGI (MCF7 breast) of the same compound?
The TGI was > 50000 nM.

What about the GI50 (UO-31 renal) of the same compound?
The GI50 was 1910 nM.

And the TGI (UO-31 renal)?
Its TGI is > 50000 nM.

And the GI50 (DU-145 prostate)?
The GI50 was 839 nM.

What about the TGI (DU-145 prostate) of the same compound?
The TGI was > 50000 nM.

And the GI50 (PC-3 prostate)?
The GI50 was 1060 nM.

And the TGI (PC-3 prostate)?
The TGI was > 50000 nM.

And the GI50 (OVCAR-3 ovarian)?
The GI50 was 198 nM.

And the TGI (OVCAR-3 ovarian)?
Its TGI is 1160 nM.

What about the GI50 (ACHN renal) of the same compound?
Its GI50 is 3630 nM.

What about the TGI (ACHN renal) of the same compound?
The TGI was > 50000 nM.

What about the GI50 (SK-MEL-5 melanoma) of the same compound?
The GI50 was 280 nM.

What about the TGI (SK-MEL-5 melanoma) of the same compound?
The TGI was > 50000 nM.

And the GI50 (HCT-15 colon)?
The GI50 was 171 nM.

What about the TGI (HCT-15 colon) of the same compound?
Its TGI is > 50000 nM.

And the GI50 (SN12C renal)?
Its GI50 is 2560 nM.

What about the TGI (SN12C renal) of the same compound?
Its TGI is > 50000 nM.

What about the GI50 (TK-10 renal) of the same compound?
Its GI50 is 3010 nM.

What about the TGI (TK-10 renal) of the same compound?
Its TGI is > 50000 nM.

What about the GI50 (IGROV1 ovarian) of the same compound?
The GI50 was 363 nM.

What about the TGI (IGROV1 ovarian) of the same compound?
The TGI was > 50000 nM.

And the GI50 (SR leukemia)?
The GI50 was 145 nM.

What about the TGI (SR leukemia) of the same compound?
Its TGI is > 50000 nM.

What about the GI50 (U251 CNS) of the same compound?
The GI50 was 245 nM.

And the TGI (U251 CNS)?
Its TGI is > 22900 nM.

What about the GI50 (A549 NSCLC) of the same compound?
Its GI50 is 312 nM.

And the TGI (A549 NSCLC)?
The TGI was > 50000 nM.

And the GI50 (SNB-19 CNS)?
The GI50 was 338 nM.

What about the TGI (SNB-19 CNS) of the same compound?
The TGI was > 50000 nM.

What about the GI50 (MDA-MB-435) of the same compound?
Its GI50 is 109 nM.

What about the TGI (MDA-MB-435) of the same compound?
Its TGI is 290 nM.

And the GI50 (CCRF-CEM leukemia)?
The GI50 was 367 nM.

And the TGI (CCRF-CEM leukemia)?
Its TGI is > 50000 nM.

And the GI50 (NCI-H226 lung)?
Its GI50 is 1730 nM.

What about the TGI (NCI-H226 lung) of the same compound?
Its TGI is > 29800 nM.

What about the GI50 (SK-OV-3 ovarian) of the same compound?
The GI50 was 11500 nM.

And the TGI (SK-OV-3 ovarian)?
Its TGI is > 50000 nM.

What about the GI50 (RPMI-8226 leukemia) of the same compound?
The GI50 was 323 nM.

And the TGI (RPMI-8226 leukemia)?
Its TGI is > 50000 nM.

And the GI50 (HOP-92 NSCLC)?
Its GI50 is 673 nM.

And the TGI (HOP-92 NSCLC)?
The TGI was > 32800 nM.

And the GI50 (MDA-MB-231 breast)?
Its GI50 is 452 nM.

What about the TGI (MDA-MB-231 breast) of the same compound?
Its TGI is > 40000 nM.

What about the GI50 (BT-549 breast) of the same compound?
Its GI50 is 3310 nM.

What about the TGI (BT-549 breast) of the same compound?
Its TGI is > 50000 nM.

And the GI50 (SF-295 CNS)?
Its GI50 is 480 nM.

And the TGI (SF-295 CNS)?
The TGI was > 25100 nM.

What about the GI50 (HCT-116 colon) of the same compound?
The GI50 was 210 nM.

What about the TGI (HCT-116 colon) of the same compound?
Its TGI is > 50000 nM.

And the GI50 (SW-620 colon)?
The GI50 was 216 nM.

What about the TGI (SW-620 colon) of the same compound?
The TGI was > 50000 nM.

What about the GI50 (SK-MEL-28 melanoma) of the same compound?
Its GI50 is 14100 nM.

And the TGI (SK-MEL-28 melanoma)?
Its TGI is > 50000 nM.

And the GI50 (HOP-62 NSCLC)?
The GI50 was 368 nM.

What about the TGI (HOP-62 NSCLC) of the same compound?
The TGI was > 50000 nM.

What about the GI50 (HL-60(TB) leukemia) of the same compound?
Its GI50 is 556 nM.

And the TGI (HL-60(TB) leukemia)?
The TGI was 8950 nM.

What about the GI50 (HCC-2998 colon) of the same compound?
Its GI50 is 5310 nM.

And the TGI (HCC-2998 colon)?
Its TGI is > 36000 nM.

What about the GI50 (M14 melanoma) of the same compound?
The GI50 was 225 nM.

And the TGI (M14 melanoma)?
The TGI was > 50000 nM.

And the GI50 (MALME-3M melanoma)?
The GI50 was 1920 nM.

And the TGI (MALME-3M melanoma)?
The TGI was > 50000 nM.

And the GI50 (A498 renal)?
The GI50 was 5850 nM.

What about the TGI (A498 renal) of the same compound?
The TGI was 28200 nM.

And the GI50 (SF-539 CNS)?
Its GI50 is 306 nM.

And the TGI (SF-539 CNS)?
The TGI was 1720 nM.

And the GI50 (SK-MEL-2 melanoma)?
The GI50 was 352 nM.

What about the TGI (SK-MEL-2 melanoma) of the same compound?
The TGI was > 50000 nM.

And the GI50 (NCI/ADR-RES ovarian)?
The GI50 was 265 nM.

What about the TGI (NCI/ADR-RES ovarian) of the same compound?
Its TGI is > 11800 nM.

And the GI50 (EKVX NSCLC)?
The GI50 was 771 nM.

And the TGI (EKVX NSCLC)?
Its TGI is > 50000 nM.

What about the GI50 (SNB-75 CNS) of the same compound?
Its GI50 is 258 nM.

And the TGI (SNB-75 CNS)?
The TGI was 2330 nM.

And the GI50 (HS 578T breast)?
Its GI50 is 214 nM.

What about the TGI (HS 578T breast) of the same compound?
The TGI was > 50000 nM.

And the GI50 (RXF 393 renal)?
The GI50 was 831 nM.

And the TGI (RXF 393 renal)?
The TGI was 3470 nM.

And the GI50 (CAKI-1 renal)?
The GI50 was 844 nM.

And the TGI (CAKI-1 renal)?
Its TGI is > 50000 nM.

What about the GI50 (SF-268 CNS) of the same compound?
The GI50 was 1140 nM.

What about the TGI (SF-268 CNS) of the same compound?
Its TGI is > 50000 nM.

What about the GI50 (MOLT-4 leukemia) of the same compound?
Its GI50 is 371 nM.

What about the TGI (MOLT-4 leukemia) of the same compound?
The TGI was > 50000 nM.

What about the GI50 (OVCAR-5 ovarian) of the same compound?
The GI50 was 1600 nM.

And the TGI (OVCAR-5 ovarian)?
Its TGI is > 50000 nM.

And the GI50 (KM12 colon)?
Its GI50 is 180 nM.

What about the TGI (KM12 colon) of the same compound?
Its TGI is > 50000 nM.

What about the GI50 (NCI-H23 lung) of the same compound?
The GI50 was 903 nM.

And the TGI (NCI-H23 lung)?
Its TGI is > 50000 nM.
